Data from patent US5866597A, “Use of triazine compounds for the treatment of memory and learning disorders” (Glaxo Wellcome Inc., priority 1993, dated 1999).

Key:
[1] = tested on: voltage-sensitive sodium channels; details: Lang et al 1993; Lees and Leach 1993; cited from earlier work
[2] = tested on: scopolamine-induced deficit in mice; assay: Modified light-dark box memory test in mice, scopolamine-induced deficit, drug given immediately post-training (Table 2); format: in vivo, Male albino CD-1 mice; details: for Mean latency Day 1 / Mean latency Day 2: ± SEM
Method: (§1) Male albino CD-1 mice obtained from Charles River were used. They were housed under controlled conditions (temperature 21±2 deg. C., humidity approx. 50%, 12 hour light/dark cycle, food and water ad lib) for one week before use. On the day before test, the mice were housed in groups of six in polythene boxes in the laboratory and marked for identification. Food and water were supplied ad lib. On the test day, animals were weighed and then dosed either 30 minutes before test (piracetam, ondansetron) one hour before test (compound A) or immediately after test.
[…] The dose volume was 10 ml/kg for all routes.
(§2) The apparatus consisted of two boxes with an opening 90 mm×60 mm at floor level between them. A plastic door was used to close the opening when required. The smaller box (290 mm×120 mm×120 mm high) was made of opaque plastics, open at the top to allow illumination by normal laboratory lighting. The larger box (305 mm square×280 mm high) was enclosed apart from the single opening.
(§3) This consisted of training, with retest 24 hours later. During training, animals were placed individually in the open box facing away from the end with the opening. After a period of exploration, they usually entered the dark box and the latency to entry in seconds was noted. The door to the dark box was closed, and after 30 seconds had elapsed, the animal was removed gently and returned to the holding box. Twenty-four hours later, an identical procedure was used, except that the session ended as soon as the animal had entered the dark box. The latency was again noted. During the interval, the animals were not handled, and were disturbed as little as possible. Each animal was used once only.
(§4) Test drugs or control fluids were given before or immediately after the training session.
(§5) Group comparisons were made between latencies to enter the dark compartment on the first and second occasions. For both training and retest occasions, comparisons were made between vehicle and treatment groups. The distribution of latencies was skewed on both learning and retest trials (data not shown), so the non-parametric Mann-Whitney U-test was used. The difference between latencies on the two occasions is presented as % decrease on Day 2 compared with Day 1.
(§6) The mean latency to enter the dark box±standard error of the mean was calculated from a group of 12 animals. For a given treatment, figures in the columns labelled `Day 1` and `Day 2` show the mean latencies taken from the same group of animals. The difference between data obtained on the two days is illustrated by showing the % decrease, and the data compared using the Mann-Whitney U-test; NS indicates a p value>0.1.

[3] = tested on: scopolamine-induced deficit in mice; assay: Modified light-dark box memory test in mice, scopolamine-induced deficit, drug given pre-training (Table 1); format: in vivo, Male albino CD-1 mice; details: for Mean latency Day 1 / Mean latency Day 2: ± SEM
Method: as §1
All drugs were dissolved or suspended in 0.25% (w/v) aqueous celacol, and administered orally (by gavage), i.p. or s.c. The dose volume was 10 ml/kg for all routes.
as §2, §3, §4
as §5, with “The distribution of latencies was skewed on both learning and retest trials (data not shown), so the non-parametric Mann-Whitney U-test was used.” left out
as §6

[4] = tested on: release of excitatory amino acids, principally glutamate; details: at anticonvulsant brain concentrations; cited from earlier work
[5] = saline s.c. + compound A 20 mg/kg i.v. post-training
[6] = saline s.c. + compound A 40 mg/kg p.o. post-training
[7] = scopolamine 1 mg/kg s.c. + compound A 20 mg/kg i.v. post-training
[8] = scopolamine 1 mg/kg s.c. + compound A 40 mg/kg p.o. post-training
[9] = saline s.c. + compound A 40 mg/kg p.o., 1 h pre-training
[10] = scopolamine 1 mg/kg s.c. + compound A 10 mg/kg p.o.
[11] = scopolamine 1 mg/kg s.c. + compound A 20 mg/kg p.o.
[12] = scopolamine 1 mg/kg s.c. + compound A 40 mg/kg p.o.

For `Nc1nnc(-c2cccc(Cl)c2Cl)c(N)n1` [Compound A, 3,5-Diamino-6-(2,3-dichlorophenyl)-1,2,4-triazine], the “Block of voltage-sensitive sodium channels” value [1] is given as “use-dependent block of voltage-sensitive sodium channels”, the “Reversal of scopolamine-induced deficit” value ([2]; compound A 20 mg/kg i.v. post-training) is given as “no reversal of the scopolamine-induced deficit” and the “Reversal of scopolamine-induced deficit” value ([2]; compound A 40 mg/kg p.o. post-training) is given as “no reversal of the scopolamine-induced deficit”. For the same compound, the “Difference between days, % Decrease” value ([2]; saline s.c. + compound A 20 mg/kg i.v. post-training, p (0.09)) was 26%, the “Mean latency Day 1” value [2, 5] was 19.9 ± 2.7 s and the “Mean latency Day 2” value [2, 5] was 14.8 ± 2.1 s. The “Difference between days, % Decrease” value ([2]; saline s.c. + compound A 40 mg/kg p.o. post-training, p <0.05) was 30%, the “Mean latency Day 1” value [2, 6] was 20.0 ± 2.3 s and the “Mean latency Day 2” value [2, 6] was 13.9 ± 1.5 s. The “Difference between days, % Decrease” value ([2]; scopolamine 1 mg/kg s.c. + compound A 20 mg/kg i.v. post-training, p NS) was -1%, the “Mean latency Day 1” value [2, 7] was 20.0 ± 2.3 s and the “Mean latency Day 2” value [2, 7] was 20.3 ± 2.5 s. The “Difference between days, % Decrease” value ([2]; scopolamine 1 mg/kg s.c. + compound A 40 mg/kg p.o. post-training, p NS) was -23%, the “Mean latency Day 1” value [2, 8] was 18.5 ± 1.8 s and the “Mean latency Day 2” value [2, 8] was 22.7 ± 2.6 s. The “Difference between days, % Decrease” value ([3]; saline s.c. + compound A 40 mg/kg p.o., 1 h pre-training, p <0.01) was 45%, the “Mean latency Day 1” value [3, 9] was 23.3 ± 3.4 s and the “Mean latency Day 2” value [3, 9] was 12.8 ± 1.2 s. For the same compound, the “Difference between days, % Decrease” value ([3]; scopolamine 1 mg/kg s.c. + compound A 10 mg/kg p.o., p NS) was 13%, the “Mean latency Day 1” value [3, 10] was 19.6 ± 1.7 s and the “Mean latency Day 2” value [3, 10] was 17.1 ± 2.2 s. The “Difference between days, % Decrease” value ([3]; scopolamine 1 mg/kg s.c. + compound A 20 mg/kg p.o., p <0.05) was 28%, the “Mean latency Day 1” value [3, 11] was 18.6 ± 2.4 s and the “Mean latency Day 2” value [3, 11] was 13.3 ± 1.5 s. For the same compound, the “Difference between days, % Decrease” value ([3]; scopolamine 1 mg/kg s.c. + compound A 40 mg/kg p.o., p <0.001) was 56%, the “Mean latency Day 1” value [3, 12] was 22.1 ± 3.2 s and the “Mean latency Day 2” value [3, 12] was 9.7 ± 1.2 s. The “Inhibition of release of excitatory amino acids, principally glutamate” value [4] was “inhibit the release of excitatory amino acids, principally glutamate”.
